Patent US9018214B2, “Bicyclic heterocycle compounds and their uses in therapy” (Astex Therapeutics Limited, priority 2011, dated 2015)
Where a name gives a salt, the structure may show the parent alone. Read-outs that look alike come from different tables or passages of the source.

Key:
[1] = molecular target: BIR3 domain of human XIAP (residues 252-350) (Homo sapiens (Human), UniProt P98170); experiment: XIAP in vitro competitive displacement binding assay (fluorescence polarization); details: for IC50: read-out: IC50 or PI Xiap: IC50; for inhibition at 0.04 µM: 1 h, read-out: IC50 or PI Xiap: PI
[2] = molecular target: BIR3 domain of human cIAP-1 (residues 267-363) (Homo sapiens (Human), UniProt Q13490); experiment: cIAP-1 in vitro competitive displacement binding assay (fluorescence polarization; Probe A AVPIK(5&6FAM)-amide or Probe B AbuRPFK(5&6FAM)-amide); details: for inhibition at […]: 3 h, read-out: IC50 or PI cIAP1: PI
[3] = tested on: EVSA-T (human breast carcinoma); experiment: Anti-proliferative activity, Alamar Blue assay, EVSA-T; assay type: cell-based; details: Homo sapiens
[4] = tested on: MDA-MB-231 (human breast carcinoma); experiment: Anti-proliferative activity, Alamar Blue assay, MDA-MB-231; assay type: cell-based; details: read-out: EC50, inhibition of cell growth
[5] = Probe B AbuRPFK(5&6FAM)-amide, read-out: IC50 or PI cIAP1: IC50
[6] = EVSA-T cell line, 72 hours, Alamar Blue, read-out: EC50, inhibition of cell growth
[7] = EVSA-T, 72 hours, Alamar Blue, read-out: EVSA-T prolif (EC50)
[8] = MDA-MB-231 cell line, 72 hours, Alamar Blue
[9] = EVSA-T, 72 h, read-out: EVSA-T prolif (EC50)
[10] = read-out: IC50 or PI cIAP1: IC50

IC50 [2, 5] [nM]	EC50 [3, 7] [nM]	Structure (SMILES)	IC50 [1] [nM]	EC50 [3, 9] [nM]	EC50 ([4]; MDA-MB-231, 72 h) [µM]	other results
110	2000	COC[C@H]1CN[C@H](C)CN1CC(=O)N1CC(C)(C)c2cnc(Oc3ccccc3C)cc21 [Example 83, 1-(3,3-Dimethyl-6-o-tolyloxy-2,3-dihydro-pyrrolo[3,2-c]pyridin-1-yl)-2-((2R,5R)-2-methoxymethyl-5-methyl-piperazin-1-yl)-ethanone hydrochloride salt]	350			IC50 [2]: < 1000 nM; EC50 [3, 6]: < 10000 nM; EC50 [4, 8]: < 10 µM
59	1000	C=C(c1ccccc1)c1cc2c(cn1)C(C)(C)CN2C(=O)CN1C[C@@H](C)NC[C@@H]1COC [Example 93, 1-[3,3-Dimethyl-6-(1-phenylethenyl)-1H,2H,3H-pyrrolo[3,2-c]pyridin-1-yl]-2-[(2R,5R)-2-(methoxymethyl)-5-methylpiperazin-1-yl]ethan-1-one, hydrochloride salt]	490			EC50 [4, 8]: < 10 µM
		COC[C@H]1CN[C@H](C)CN1CC(=O)N1CC(C)(C)c2cnc(Cc3ccccc3)cc21 [Example 63, 1-(6-Benzyl-3,3-dimethyl-2,3-dihydro-pyrrolo[3,2-c]pyridin-1-yl)-2-((2R,5R)-2-methoxy-methyl-5-methyl-piperazin-1-yl)-ethanone hydrochloride salt]		100	< 10	
29	290	C[C@@H]1CN(CC(=O)N2CC(C)(C)c3cnc(Cc4ccccc4)cc32)[C@@H](C(F)F)CN1 [Example 122, 1-{6-Benzyl-3,3-dimethyl-1H,2H,3H-pyrrolo[3,2-c]pyridin-1-yl}-2-[(2R,5R)-2-(difluoromethyl)-5-methylpiperazin-1-yl]ethan-1-one hydrochloride]	220			EC50 [4, 8]: < 10 µM
		C[C@@H]1CN(CC(=O)N2CC(C)(C)c3cc(F)c(S(=O)(=O)c4ccccc4)cc32)CCN1 [Example 47, 1-(6-Benzenesulfonyl-5-fluoro-3,3-dimethyl-2,3-dihydro-indol-1-yl)-2-((R)-3-methyl-piperazin-1-yl)-ethanone dihydrochloride salt]	270	1800	< 10	IC50 [2]: < 1000 nM; IC50 [2, 10]: 390 nM; EC50 ([3]; EVSA-T, 72 h, read-out: EC50, inhibition of cell growth): < 10000 nM
44	230	COC[C@H]1CN[C@H](C)CN1CC(=O)N1CC(C)(C)c2cnc(Oc3c(C)cccc3Cl)cc21 [Example 130, 1-[6-(2-Chloro-6-methylphenoxy)-3,3-dimethyl-1H,2H,3H-pyrrolo[3,2-c]pyridin-1-yl]-2-[(2R,5R)-2-(methoxymethyl)-5-methylpiperazin-1-yl]ethan-1-one hydrochloride]	200			EC50 [3, 6]: < 10000 nM; EC50 [4, 8]: < 10 µM
		COC[C@H]1CN[C@H](C)CN1CC(=O)N1CC(C)(C)c2cc(F)c(S(=O)(=O)c3ccc(OC)cc3)cc21 [Example 60, 1-[5-Fluoro-6-(4-methoxy-benzenesulfonyl)-3,3-dimethyl-2,3-dihydro-indol-1-yl]-2-((2R,5R)-2-methoxymethyl-5-methyl-piperazin-1-yl)-ethanone dihydrochloride salt]		690	< 10	
		C[C@@H]1CN(CC(=O)N2CC(C)(C)c3ncc(C(C)(F)F)cc32)[C@@H](CN2CCc3cccnc32)CN1 [Example 222, 1-[6-(1,1-Difluoroethyl)-3,3-dimethyl-1H,2H,3H-pyrrolo[3,2-b]pyridin-1-yl]-2-[(2R,5R)-5-methyl-2-{1H,2H,3H-pyrrolo[2,3-b]pyridin-1-ylmethyl}piperazin-1-yl]ethan-1-one dihydrochloride]	220	9600		IC50 [2]: < 1000 nM; IC50 [2, 10]: 140 nM
		COC[C@H]1CN[C@H](C)CN1CC(=O)N1CC(C)(C)c2cnc(C#N)cc21 [Example 103, 1-{2-[(2R,5R)-2-(Methoxymethyl)-5-methylpiperazin-1-yl]acetyl}-3,3-dimethyl-1H,2H,3H-pyrrolo[3,2-c]pyridine-6-carbonitrile]	420			IC50 [2]: < 1000 nM; IC50 [2, 10]: 870 nM; inhibition at 10 µM ([3]; EVSA-T, at 10 μM, read-out: EVSA-T prolif: % inhibition): 12%
14	190	C[C@@H]1CN(CC(=O)N2CC(C)(C)c3cnc(Oc4ccccc4Cl)cc32)[C@@H](CN2CCOC2=O)CN1 [Example 189, 3-{[(2R,5R)-1-{2-[6-(2-Chlorophenoxy)-3,3-dimethyl-1H,2H,3H-pyrrolo[3,2-c]pyridin-1-yl]-2-oxoethyl}-5-methylpiperazin-2-yl]methyl}-1,3-oxazolidin-2-one hydrochloride]				inhibition at 0.04 µM ([1]; @ 0.04 μM): 70%
	10	C[C@@H]1CN(CC(=O)N2CC(C)(C)c3ncc(Cc4ccccc4F)cc32)[C@@H](CN2CCCC2=O)CN1 [Example 249, 1-{[(2R,5R)-1-(2-{6-[(2-Fluorophenyl)methyl]-3,3-dimethyl-1H,2H,3H-pyrrolo[3,2-b]pyridin-1-yl}-2-oxoethyl)-5-methylpiperazin-2-yl]methyl}pyrrolidin-2-one hydrochloride]				inhibition at 0.04 µM ([1]; @ 0.04 μM): 56%; inhibition at […] ([2]; Probe B, @ 0.012 μM): 90%

Structure (SMILES)	IC50 [2, 5] [nM]	EC50 [3, 7] [nM]	IC50 [1] [nM]	EC50 [3, 9] [nM]	EC50 ([4]; MDA-MB-231, 72 h) [µM]	other results
COC[C@H]1CN[C@H](C)CN1CC(=O)N1CC(C)(C)c2cnc(Oc3c(C)cccc3C)cc21 [Example 119, 1-[6-(2,6-Dimethylphenoxy)-3,3-dimethyl-1H,2H,3H-pyrrolo[3,2-c]pyridin-1-yl]-2-[(2R,5R)-2-(methoxymethyl)-5-methylpiperazin-1-yl]ethan-1-one hydrochloride]	96			870	< 10	
COC[C@H]1CN[C@H](C)CN1CC(=O)N1CC(C)(C)c2ccc(Cc3ccccc3)cc21 [Example 94, 1-(6-Benzyl-3,3-dimethyl-2,3-dihydro-1H-indol-1-yl)-2-[(2R,5R)-2-(methoxy-methyl)-5-methyl-piperazin-1-yl]ethan-1-one, hydrochloride salt]	14			330	< 10	
COC[C@H]1CN[C@H](C)CN1CC(=O)N1CC(C)(C)c2cc(F)c(S(=O)(=O)c3ccccc3)cc21 [Example 58, 1-(6-Benzene-sulfonyl-5-fluoro-3,3-dimethyl-2,3-dihydro-indol-1-yl)-2-((2R,5R)-2-methoxymethyl-5-methyl-piperazin-1-yl)-ethanone hydrochloride salt]	45			170	< 10	
C[C@@H]1CN(CC(=O)N2CC(C)(C)c3ncc(Cc4ccccc4F)cc32)[C@@H](CN2CCOC[C@H]2C)CN1 [Example 261, 1-[6-(2-Fluoro-benzyl)-3,3-dimethyl-2,3-dihydro-pyrrolo[3,2-b]pyridin-1-yl]-2-[(2R,5R)-5-methyl-2-((R)-3-methyl-morpholin-4-ylmethyl)-piperazin-1-yl]-ethanone dihydrochloride]		2.1				inhibition at 0.04 µM [1]: 55%; inhibition at […] [2]: 96%
C[C@@H]1CN(CC(=O)N2C[C@@](C)(c3ccccc3)c3ccc(C#N)cc32)[C@@H](C(=O)N2CCOCC2)CN1 [Example 152, (3S)-3-Methyl-1-{2-[(2R,5R)-5-methyl-2-[(morpholin-4-yl)carbonyl]piperazin-1-yl]acetyl}-3-phenyl-2,3-dihydro-1H-indole-6-carbonitrile]	110	3700	65			
